Values of other authors, collected in patent publication US20050004032A1, “Collagen mimics” (priority 2003, published 2005).

| Tm, temperature at the midpoint of the thermal transition as measured by CD spectroscopy (literature values per Table 1 footnotes b-f, some reported for the 10-repeat peptides) | Substance | melting temperature of a triple helix (Sakakibara et al. 1973) [°C] |
| --- | --- | --- |
| 6-7^c ° C. | (ProProGly)7 |  |
|  | (ProProGly)10 | 24 |
